Source: US20250289790A1, “UV LIGHT STABILIZERS” (BASF SE, priority 2022, published 2025)

Experiment: Solubility at room temperature in xylene / toluene
Format: physicochemical

- soluble in xylene: less than 1%
- Solubility at room temperature [g] xylene (room temperature): 2 g
SMILES: CC(C)(C)c1cc(CCC(=O)OCC(COC(=O)CCc2cc(-n3nc4ccc(Cl)cc4n3)c(O)c(C(C)(C)C)c2)(COC(=O)CCc2cc(-n3nc4ccc(Cl)cc4n3)c(O)c(C(C)(C)C)c2)COC(=O)CCc2cc(-n3nc4ccc(Cl)cc4n3)c(O)c(C(C)(C)C)c2)cc(-n2nc3ccc(Cl)cc3n2)c1O [Example C3]
